Values quoted from earlier work, collected in US20240377378A1, “TRACER METHODS FOR THE DETERMINATION OF SORBENT CONTENT IN SOILS” (Regenesis Bioremediation Products, priority 2023, published 2024).

Assays:
[1] = water
[2] = under normal conditions (Congo Red: normal or ambient conditions)
[3] = 2012 OSHA Hazard Communication Standard

For `O=S(=O)(O)c1cc(S(=O)(=O)O)c2c(/N=N/c3ccccc3)c(O)ccc2c1` [Orange G], the pKa is given as 11.5, the Solubility [1] is given as 50 to 100 mg/mL and the “Solubility (in words)” value [1] is given as “soluble in water”. The “Chemical Stability” value [2] was “Stable under” and the “Hazard Identification: criteria for hazardous classification” value [3] was “Does not meet”.
In the case of `CCN(CC)c1ccc2c(-c3ccccc3C(=O)O)c3ccc(=[N+](CC)CC)cc-3oc2c1.[Cl-]` [Rhodamine B], the pKa is listed as 3.1-3.22, the “Chemical Stability” value [2] is listed as “Stable under” and the “Serious eye damage/eye irritation hazard category” value [3] is listed as “(Category 1)”. For the same compound, the “acute oral toxicity hazard category” value [3] was “(Category 4),”.
For `Nc1c(/N=N/c2ccc(-c3ccc(/N=N/c4cc(S(=O)(=O)O)c5ccccc5c4N)cc3)cc2)cc(S(=O)(=O)O)c2ccccc12` [Congo Red], the Solubility [1] is given as 25 to 116 mg/mL, the “Chemical Stability” value [2] is given as “Stable under” and the carcinogenicity hazard category [3] is given as “(Category 1B),”. For the same compound, the “reproductive toxicity hazard category” value [3] was “(Category 2)”.
